Source: patent US7541021B2, “Process for preparation of a sterile suspension of corticosteroid particles for the administration by inhalation” (Chiesi Farmaceutici S.p.A., priority 2002, dated 2009)

Key:
[1] = system: microsomes of human lung cells; experiment: Formation of fatty acid esters of 17-BMP in lung microsomes; format: in vitro ADME
[2] = Elimination of 17-BMP after nebulisation of aqueous BDP suspensions versus pressurised aerosol suspensions; format: in vivo; conditions: after aqueous suspensions of BDP by nebulisation, compared with suspension formulations as pressurised aerosols
Source text: It has also been observed that due to the formation of the monoester in the lung cells, the elimination half-life and the mean residence time of 17-BMP are longer after the administration of aqueous suspensions of BDP by nebulisation than formulations in suspension administered in the form of pressurised aerosols.

[3] = Apparent volumes and densities (European Pharmacopoeia 2.9.15) of micronised BDP powder; format: physicochemical; conditions: for dv, apparent density before settling: 100 g in 250 ml cylinder; for ds, apparent density after packing: after compacting
Protocol: The apparent volumes and densities were measured according to the European Pharmacopoeia, 4th edition, paragraph 2.9.15. 100 g of the test substance is introduced into a dry 250 ml cylinder without compacting it. The unsettled apparent volume (Vo) is read off, then 10, 500 and 1250 taps are performed, and volumes (V10, V500 and V1250) are read. If the difference between V500 and V1250 is greater than 2 ml, 1250 further taps are performed (V2500).

[4] = Particle size of micronised BDP by Malvern apparatus; format: physicochemical; conditions: micronised powder
Protocol: The dimensional characteristics of the particles were also evaluated by using a Malvern apparatus. This type of test exploits the diffraction of a laser beam by the particles to determine the size distribution of the particles in suspension. The parameter considered is the median volumetric diameter in μm of 10%, 50% and 90% of the particles, expressed as d(v,0.1), d(v,0.5) and d(v,0.9) respectively, which is determined by assuming that the particles have a geometrical shape equivalent to a sphere. Advantageously, in the suspension formulation of the invention, the d(v,0.9) after sonication is less than 8 μm and the d(v,0.5) is comprised between 2 and 3.5 μm.

Compound | Formation of stable esters with long-chain fatty acids such as oleic acid [1] | elimination half-life [2] | mean residence time [2] | Cs, packing capacity (difference between V10 and V500) [3] [mL] | dv, apparent density before settling [3] [g/mL] | ds, apparent density after packing [3] [g/mL] | Particle size d (v, 0.1) [4] [μm] | Particle size d (v, 0.5) [4] [μm] | Particle size d (v, 0.9) [4] [μm]
CCC(=O)O[C@]1(C(=O)CO)[C@@H](C)C[C@H]2[C@@H]3CCC4=CC(=O)C=C[C@]4(C)[C@@]3(Cl)[C@@H](O)C[C@@]21C [17-BMP, beclomethasone-17-monopropionate] | are formed | longer | longer |  |  |  |  |  | 
CCC(=O)OCC(=O)[C@@]1(OC(=O)CC)[C@@H](C)C[C@H]2[C@@H]3CCC4=CC(=O)C=C[C@]4(C)[C@@]3(Cl)[C@@H](O)C[C@@]21C [Irradiated BDP, beclomethasone dipropionate] |  |  |  | 12 | 0.32 | 0.42 | 0.48 | 1.81 | 5.73
CCC(=O)OCC(=O)[C@@]1(OC(=O)CC)[C@@H](C)C[C@H]2[C@@H]3CCC4=CC(=O)C=C[C@]4(C)[C@@]3(Cl)[C@@H](O)C[C@@]21C [Non-irradiated BDP, beclomethasone dipropionate] |  |  |  | 16 | 0.21 | 0.27 | 0.49 | 1.91 | 5.98
